Tested on: NF-κB mediated transcription
Assay: NF-κB driven β-lactamase reporter assay in ECV-304 NF-κB.βlaZ cells (AURORA CCF2 fluorescence)
Format: cell-based, human
Conditions: 10 μM compound; ECV-304 NF-κB.βlaZ cells stimulated with 10 ng/mL TNF-α or 100 pg/mL IL-1β, 6 hours at 37° C.; inhibition of maximum blue/green ratio
Procedure, shortened: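 Blue/green (460/530 nm, excitation 395 nm) CCF2 emission ratio quantified NF-κB-driven β-lactamase expression in the stably transfected endothelial-like ECV-304 clone 1E8.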

SMILES | Percent Inhibition at 10 μM
CC(C)c1cccc(C(C)C)c1OC(=O)NS(=O)(=O)Nc1nc2ccccc2[nH]1 [Example 16, Carbamic acid, [(1H-benzimdazol-2-ylamino)sulfonyl]-, 2,6-bis(1-methylethyl)-phenyl ester] | <10%

Same assay, conditions: Homo sapiens, ECV-304, 6 h, 10 μM compound; ECV-304 NF-κB.βlaZ cells stimulated with 10 ng/mL TNF-α or 100 pg/mL IL-1β, 6 hours at 37° C.; inhibition of maximum blue/green ratio; read-out: Percent Inhibition at 10 μM

SMILES | inhibition at 10 µM
CCCCCCCCCCCCCS(=O)(=O)NC(=O)Nc1c(C(C)C)cccc1C(C)C [Example 242, N-[2,6-bis(1-methylethyl)phenyl]-N′-(tridecylsulfonyl)urea] | < 10%
CC(C)c1cc(C(C)C)c(CC(=O)NS(=O)(=O)Oc2c(C(C)C)cc(NC(=O)C(CCCCNC(=O)OC(C)(C)C)NC(=O)OC(C)(C)C)cc2C(C)C)c(C(C)C)c1 (centres unmarked) [Example 195, [5-tert-Butoxycarbonylamino-5-(3,5-diisopropyl-4-{[(2,4,6-triisopropyl-phenyl)-acetyl]sulfamoyloxy}-phenylcarbamoyl)-pentyl]-carbamic acid tert-butyl ester] | 91.8%
CC(C)c1cc(C(C)C)c(CC(=O)NS(=O)(=O)Oc2c(C(C)C)cc(NS(=O)(=O)c3cccc4c(N(C)C)cccc34)cc2C(C)C)c(C(C)C)c1 [Example 226, [(2,4,6-Triisopropyl-phenyl)-acetyl]-sulfamic acid 4-(5-dimethylamino-naphthalene-1-sulfonylamino)-2,6-diisopropyl-phenyl ester] | 46.3%
CCCN(CCC)S(=O)(=O)NC(=O)Nc1c(C(C)C)cccc1C(C)C [Example 77, Urea, N-[2,6-bis(1-methylethyl)phenyl]-N′-[(dipropylamino)sulfonyl]-] | < 10%
CC(C)c1cc(C(C)C)c(C(O)C(=O)NS(=O)(=O)Oc2c(C(C)C)cccc2C(C)C)c(C(C)C)c1 (centres unmarked) [Example 162, [Hydroxy-(2,4,6-triisopropyl-phenyl)-acetyl]-sulfamic acid 2,6-diisopropyl-phenyl ester] | 75.3%
CC(C)c1cccc(C(C)C)c1NC(=O)NS(=O)(=O)N(C(C)C)C1CCCCC1 [Example 63, Urea, N-[2,6-bis(1-methylethyl)phenyl]-N′-[[cyclohexyl(1-methylethyl)amino]-sulfonyl]-] | 23%
CC(C)c1cccc(C(C)C)c1OS(=O)(=O)NC(=O)Cc1ccccc1C(F)(F)F [Example 158, [(2-Trifluoromethyl-phenyl)-acetyl]-sulfamic acid 2,6-diisopropyl-phenyl ester] | 25.9%
CCCCCCCCCCCCOC(=O)NS(=O)(=O)OCCCCCCCCCCCC [Example 61, Carbamic acid, [(dodecyloxy)sulfonyl]-, dodecyl ester] | 27.4%
CC(C)c1cccc(C(C)C)c1OS(=O)(=O)NC(=O)C1(c2ccc(N(C)C)cc2)CCCC1 [Example 211, [1-(4-Dimethylamino-phenyl)-cyclopentanecarbonyl]-sulfamic acid 2,6-diisopropyl-phenyl ester] | 24.6%
CC(C)c1cccc(C(C)C)c1OS(=O)(=O)NC(=O)N1CCc2ccccc21 [Example 222, (2,3-Dihydro-indole-1-carbonyl)-sulfamic acid 2,6-diisopropyl-phenyl ester] | < 10%
CC(C)c1cccc(C(C)C)c1OS(=O)(=O)NC(=O)CCc1ccccc1 [Example 176, (3-Phenyl-propionyl)-sulfamic acid 2,6-diisopropyl-phenyl ester] | < 10%
CC(C)c1cc(C(C)C)c(CC(=O)NS(=O)(=O)Oc2c(C(C)C)cc(N)cc2C(C)C)c(C(C)C)c1 [Example 187, [(2,4,6-Triisopropyl-phenyl)-acetyl]-sulfamic acid 4-amino-2,6-diisopropyl-phenyl ester] | 57.8%
CC(C)c1cc(C(C)C)c(CC(=O)NS(=O)(=O)Oc2c(C(C)C)cc(NC(=O)Nc3ccccc3)cc2C(C)C)c(C(C)C)c1 [Example 218, [(2,4,6-Triisopropyl-phenyl)-acetyl]-sulfamic acid 2,6-diisopropyl-4-(3-phenyl-ureido)-phenyl ester] | < 10%
CC(C)c1cccc(C(C)C)c1OS(=O)(=O)NC(=O)C1(c2ccccc2)CCCC1 [Example 168, (1-Phenyl-cyclopentanecarbonyl)-sulfamic acid 2,6-diisopropyl-phenyl ester] | 39.1%
CCCCCCCCCCCCOC(=O)NS(=O)(=O)Nc1c(OC)cc(OC)cc1OC [Example 79, Carbamic acid, [[(2,4,6-trimethoxyphenyl)amino]sulfonyl]-, dodecyl ester] | < 10%

Same assay, conditions: Homo sapiens; 10 μM compound; ECV-304 NF-κB.βlaZ cells stimulated with 10 ng/mL TNF-α or 100 pg/mL IL-1β, 6 hours at 37° C.; inhibition of maximum blue/green ratio; read-out: Percent Inhibition at 10 μM

SMILES | inhibition at 10 µM
CC(C)c1cccc(C(C)C)c1OC(=O)NS(=O)(=O)Oc1c(C(C)(C)C)cccc1C(C)(C)C [Example 102, Carbamic acid, [[2,6-bis(1,1-dimethylethyl)phenoxy]sulfonyl]-, 2,6-bis(1-methylethyl)phenyl ester] | 20.6%
CC(C)c1cccc(C(C)C)c1OC(=O)NS(=O)(=O)N1CCCC1 [Example 66, Carbamic acid, (1-pyrrolidinylsulfonyl)-, 2,6-bis(1-methylethyl)phenyl ester] | < 10%
CC(C)c1cc(Cl)cc(C(C)C)c1OC(=O)NS(=O)(=O)Oc1c(C(C)C)cccc1C(C)C [Example 117, Carbamic acid, [[2,6-bis(1-methylethyl)phenoxy]sulfonyl]-, 4-chloro-2,6-bis(1-methylethyl)phenyl ester] | < 10%
CC(C)c1cccc(C(C)C)c1OS(=O)(=O)NC(=O)Oc1c(F)cccc1F [Example 153, Carbamic acid, [[2,6-bis(1-methylethyl)phenoxy]sulfonyl]-, 2,6-difluorophenyl ester] | < 10%
CC(C)c1cccc(C(C)C)c1OC(=O)NS(=O)(=O)NCC(c1ccccc1)c1ccccc1 [Example 10, Carbamic acid, [[(2,2-diphenylethyl)amino]sulfonyl]-, 2,6-bis(1-methylethyl)-phenyl ester] | 39.7%
CC(C)(C)c1cccc(C(C)(C)C)c1OC(=O)NS(=O)(=O)NC(c1ccccc1)c1ccccc1 [Example 2, Carbamic acid, [[(diphenylmethyl)amino]sulfonyl]-, 2,6-bis(1,1-dimethylethyl)phenyl ester] | 37.2%
Cc1cc(C(C)(C)C)c(OC(=O)NS(=O)(=O)Nc2c(C(C)C)cccc2C(C)C)c(C(C)(C)C)c1 [Example 6, Carbamic acid, [[[2,6-bis(1-methylethyl)phenyl]amino]sulfonyl]-, 2,6-bis(1,1-dimethylethyl)-4-methylphenyl ester] | 64.9%
Cc1cc(C(C)(C)C)c(OC(=O)NS(=O)(=O)Oc2c(C(C)C)cccc2C(C)C)c(C(C)(C)C)c1 [Example 119, Carbamic acid, [[2,6-bis(1-methylethyl)phenoxy]sulfonyl]-, 2,6-bis(1,1-dimethylethyl)-4-methylphenyl ester] | 56.6%
CC(C)c1cc(O)cc(C(C)C)c1OC(=O)NS(=O)(=O)Oc1c(C(C)C)cccc1C(C)C [Example 132, Carbamic acid, [[2,6-bis(1-methylethyl)phenoxy]sulfonyl]-, 4-hydroxy-2,6-bis(1-methylethyl)phenyl ester] | < 10%
COc1cc(C(C)(C)C)c(OC(=O)NS(=O)(=O)Oc2c(C(C)C)cccc2C(C)C)c(C(C)(C)C)c1 [Example 115, Carbamic acid, [[2,6-bis(1-methylethyl)phenoxy]sulfonyl]-, 2,6-bis(1,1-dimethylethyl)-4-methoxyphenyl ester] | 39%

Source: US20020183384A1, “Methods of treating nuclear factor-kappa B mediated diseases and disorders” (priority 2001, published 2002)
